Holding throughout (format): functional
In assay [1] the test system is Rattus norvegicus. Briefly: Increase in noradrenergic extracellular noradrenaline level in locally administered Sprague-Dawley rat by microdialysis assay.
Assay [2] concerns Rattus norvegicus. Briefly: Increase in noradrenergic extracellular noradrenaline level in Sprague-Dawley rat at 8 mg/kg, ip by microdialysis assay. The following applies: route intraperitoneal.
The target in assay [3] is T1, Adrenergic receptor alpha-2 (Homo sapiens, UniProt P08913+P18825+P18089).
T1 sequence (P08913 whole entry): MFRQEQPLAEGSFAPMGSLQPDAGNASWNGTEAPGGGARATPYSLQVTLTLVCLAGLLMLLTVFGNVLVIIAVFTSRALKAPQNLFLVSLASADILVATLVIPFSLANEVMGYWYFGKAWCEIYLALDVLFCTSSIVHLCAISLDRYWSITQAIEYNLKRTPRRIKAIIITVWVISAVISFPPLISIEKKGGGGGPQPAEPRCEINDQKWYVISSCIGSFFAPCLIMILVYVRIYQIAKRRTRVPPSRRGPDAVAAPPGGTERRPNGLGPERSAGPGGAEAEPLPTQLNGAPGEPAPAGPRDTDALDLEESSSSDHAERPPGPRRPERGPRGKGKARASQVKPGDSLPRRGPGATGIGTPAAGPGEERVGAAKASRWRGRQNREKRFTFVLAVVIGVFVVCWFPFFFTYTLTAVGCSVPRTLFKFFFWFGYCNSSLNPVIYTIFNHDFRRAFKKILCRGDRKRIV
T1 sequence (P18825 whole entry): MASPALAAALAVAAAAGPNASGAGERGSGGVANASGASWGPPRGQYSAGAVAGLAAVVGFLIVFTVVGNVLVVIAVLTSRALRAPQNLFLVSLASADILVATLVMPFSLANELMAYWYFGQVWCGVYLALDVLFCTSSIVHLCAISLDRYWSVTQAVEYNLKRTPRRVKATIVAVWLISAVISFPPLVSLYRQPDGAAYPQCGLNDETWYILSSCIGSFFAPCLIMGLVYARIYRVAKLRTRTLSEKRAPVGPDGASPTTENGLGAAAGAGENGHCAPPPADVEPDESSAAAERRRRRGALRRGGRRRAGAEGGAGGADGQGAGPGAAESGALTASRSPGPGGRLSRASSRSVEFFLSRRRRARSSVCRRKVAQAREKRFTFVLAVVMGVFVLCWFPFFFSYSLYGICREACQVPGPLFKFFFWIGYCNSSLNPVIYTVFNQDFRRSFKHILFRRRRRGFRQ
T1 sequence (P18089 whole entry): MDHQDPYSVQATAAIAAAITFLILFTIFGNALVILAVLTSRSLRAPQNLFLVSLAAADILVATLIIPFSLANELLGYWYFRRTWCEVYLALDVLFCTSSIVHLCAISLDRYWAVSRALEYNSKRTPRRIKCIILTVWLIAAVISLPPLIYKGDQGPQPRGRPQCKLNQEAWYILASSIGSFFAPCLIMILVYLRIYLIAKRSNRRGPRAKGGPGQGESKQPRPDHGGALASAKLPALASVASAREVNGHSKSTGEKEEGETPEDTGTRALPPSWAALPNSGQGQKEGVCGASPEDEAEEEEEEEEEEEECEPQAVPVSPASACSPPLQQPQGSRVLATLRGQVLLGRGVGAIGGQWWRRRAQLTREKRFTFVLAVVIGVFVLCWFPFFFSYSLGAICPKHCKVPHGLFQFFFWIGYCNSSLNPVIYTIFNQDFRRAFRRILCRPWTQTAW
As to the kind of experiment: Agonist activity at human brain adrenergic alpha2 receptor by [35S]GTPgammaS binding assay. In general terms: Binding of GTPγS marks nucleotide exchange on a G protein.

In assay [4] the target is T1, Adrenergic receptor alpha-2. As to the kind of experiment: Antagonist activity at human brain adrenergic alpha-2 receptor assessed as UK-14304-stimulated [35S]GTPgammaS binding at 10 uM.

Regarding `COC1(C2=NCCN2)COc2ccccc2O1` (stereo not drawn), the Activity with Rattus norvegicus [1] stood at 287%.

In the case of `CN(C)c1ccc(NC2=NCCN2)cc1`, the Activity in the assay on Rattus norvegicus [1] was 316%; in the assay with Rattus norvegicus [2], 192%.

As for `c1ccc2c(c1)OCC(C1=NCCN1)O2` (stereo not drawn) [IDAZOXAN], the Activity in the assay with Rattus norvegicus [1] is recorded as 235%.

Turning to `COc1ccc(NC2=NCCN2)cc1`, the EC50 (as a rule, the concentration that produces a half-maximal response) in assay [3] turned out to be 30.4 µM.

Take `c1cc2c(cc1NC1=NCCN1)OCO2`: the concentration giving a half-maximal response (EC50) in assay [4] was 141 µM. Moreover, the Activity in the assay on Rattus norvegicus [1] worked out at 240%; in the assay with Rattus norvegicus [2], 328%.
